From PubChem BioAssay AID1033 (Sanford-Burnham Center for Chemical Genomics, 2008)
Calls of active or inactive are those of the source. The rule behind the calls is not given here.

target: Chaperone protein DnaK (Escherichia coli (strain K12)) (UniProt P0A6Y8); test: binders of DnaK substrate-binding domain, biophysical, NMR, chaperone (AID 1033); settings: Purified DnaK SBD, NMR ligand binding
Sequence (P0A6Y8 whole entry, looked up, the tested form may be a part): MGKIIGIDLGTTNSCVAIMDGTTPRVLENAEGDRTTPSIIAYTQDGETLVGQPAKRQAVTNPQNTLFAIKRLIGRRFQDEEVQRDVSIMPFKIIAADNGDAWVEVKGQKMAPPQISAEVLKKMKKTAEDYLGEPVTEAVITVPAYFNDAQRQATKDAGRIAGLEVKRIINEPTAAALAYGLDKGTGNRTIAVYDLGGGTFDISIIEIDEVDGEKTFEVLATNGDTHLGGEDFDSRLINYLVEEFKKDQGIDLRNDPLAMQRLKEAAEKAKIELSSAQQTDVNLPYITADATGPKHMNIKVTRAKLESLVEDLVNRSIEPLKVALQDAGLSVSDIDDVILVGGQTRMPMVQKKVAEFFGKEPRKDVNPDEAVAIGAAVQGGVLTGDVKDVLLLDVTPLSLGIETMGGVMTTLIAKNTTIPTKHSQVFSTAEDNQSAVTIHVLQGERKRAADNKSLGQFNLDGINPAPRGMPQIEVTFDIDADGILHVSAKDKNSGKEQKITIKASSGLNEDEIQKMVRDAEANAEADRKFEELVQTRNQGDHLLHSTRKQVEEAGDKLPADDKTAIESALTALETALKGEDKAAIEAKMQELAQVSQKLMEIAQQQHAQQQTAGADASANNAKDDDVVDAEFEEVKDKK

Compound	Kd
O=C(c1ncc[nH]1)c1ccccc1C(=O)N1CCOCC1	> 4 mM (inactive)
O=c1c(-c2ccccc2)coc2cc(O)cc(O)c12	> 4 mM (inactive)
CCNS(=O)(=O)c1ccc(OC)c(C)c1	> 4 mM (inactive)
Nc1scc[n+]1CC(=O)[O-]	> 4 mM (inactive)
Cc1cc(C(=O)Nc2ccc3c(c2)OCCO3)c(C)o1	> 4 mM (inactive)
COc1ccc2c(c1)OCC(Cc1ccc(OC)c(OC(C)=O)c1)C2=O (stereo unspecified)	> 4 mM (inactive)
Cc1n[nH]c(=S)n(/N=C/c2ccccc2)c1=O	> 4 mM (inactive)
CC1=CC(=O)NC2C=CC=CC12 (stereo unspecified)	> 4 mM (inactive)
Clc1ccc(-c2noc(CN3CCCC3)n2)cc1	> 4 mM (inactive)
O=C(O)CCN1CCc2ccccc2C1c1ccncc1 (stereo unspecified)	> 4 mM (inactive)
COC(=O)c1ccc2ncccc2c1	> 4 mM (inactive)
Cc1ccn(S(=O)(=O)c2ccc(C(C)(C)C)cc2)n1	> 4 mM (inactive)
O=C1CS/C(=N/N=C/c2cccs2)N1	> 4 mM (inactive)
Nc1cc(=O)[nH]c(SCC(=O)NC2CCCCC2)n1	> 4 mM (inactive)
O=C(O)c1cccc2c1OCCCO2	> 4 mM (inactive)
Fc1cc2nccnc2cc1N1CCSCC1	> 4 mM (inactive)
Nc1nnc(C(F)(F)F)s1	> 4 mM (inactive)
CC(C)c1ccc2c(c1)CCC1C(C)(C(N)=O)CCCC21C (stereo unspecified)	> 4 mM (inactive)
NC1=NC(=O)C(Cc2cccc([N+](=O)[O-])c2)S1 (stereo unspecified)	> 4 mM (inactive)
NC(=O)CSc1nc2ccccc2c(=O)[nH]1	> 4 mM (inactive)
Oc1cnc2ccccc2c1CN1CCOCC1	> 4 mM (inactive)
CS(=O)(=O)N1CCN(C(=O)c2ccccc2)CC1	> 4 mM (inactive)
NC(=O)c1cc(N)cc(C(N)=O)c1	> 4 mM (inactive)
NC(=O)c1ccc(NC(=O)c2ccco2)cc1	> 4 mM (inactive)

Compound	Kd
Cc1nnc(NCc2cccnc2)[nH]c1=O	> 4 mM (inactive)
Cc1nc2ccc(C(=O)N3CCSCC3)cc2s1	> 4 mM (inactive)
COc1cc(O)c(C)c(O)c1	> 4 mM (inactive)
CC(=O)N/N=C(\C)c1cccc(N)c1	> 4 mM (inactive)
Cc1ccc(SCc2nc(-c3cccnc3)no2)cc1	> 4 mM (inactive)
S=C(c1cccnc1)N1CCOCC1	> 4 mM (inactive)
CC(=O)NC12CC3CC(C)(C1)CC(NC(C)=O)(C3)C2	> 4 mM (inactive)
NC(=O)CN1CC(c2ccccc2)CC1=O (stereo unspecified)	> 4 mM (inactive)
COc1cccc(S(=O)(=O)Nc2cccnc2)c1	> 4 mM (inactive)
Cc1c(CCO)c(=O)n2c([nH]c3ccccc32)c1C#N	> 4 mM (inactive)
COc1cc(/C=C2\SC(=S)NC2=O)ccc1O	> 4 mM (inactive)
O=C(Nc1c[nH]c(=O)[nH]c1=O)c1cccs1	> 4 mM (inactive)
O=C(CSc1ncn[nH]1)c1ccc2c(c1)OCO2	> 4 mM (inactive)
CCOC(=O)c1c(-c2ccncc2)csc1N	> 4 mM (inactive)
COc1ccc2[nH]cc(CCN(C)C)c2c1	> 4 mM (inactive)
O=c1cccc2n1CC1CC2CN2CCCC[C@@H]12 (stereo partly specified)	> 4 mM (inactive)
COCC(=O)Nc1cccc(Br)c1	> 4 mM (inactive)
Cc1cc(C(=O)Nc2ccc3c(c2)OCO3)cs1	> 4 mM (inactive)
OC[C@H]1O[C@@H](n2cnc3c(NCc4ccco4)ncnc32)[C@H](O)[C@@H]1O	> 4 mM (inactive)
O=C(O)C1CC(=O)N(C2Cc3ccccc3C2)C1 (stereo unspecified)	> 4 mM (inactive)
O=C(c1ccncc1)N1CCN(C(=O)c2ccncc2)CC1	> 4 mM (inactive)
NC(=O)C1CCN(C(=O)c2ccccc2F)CC1	> 4 mM (inactive)
CC(=O)N1CC2(C)CN(C(C)=O)CC(C)(C1)C2	> 4 mM (inactive)
Nc1nc(SCc2ccc3c(c2)OCCO3)n[nH]1	> 4 mM (inactive)

Compound	Kd
NC1Cc2ccccc2C1	> 4 mM (inactive)
C=C1C2CC[C@H]3[C@]4(C)C[C@H](OC5OC(CO)C(OS(=O)(=O)O)C(OS(=O)(=O)O)C5OC(=O)CC(C)C)C[C@@H](C(=O)O)[C@H]4CC[C@]3(C2)[C@H]1O (stereo partly specified)	> 4 mM (inactive)
Cc1cc(C)n(-c2nncn2N)n1	> 4 mM (inactive)
CC(C)n1nnc2cc(C(=O)O)ccc21	> 4 mM (inactive)
C/C=C(/C)C(=O)O[C@@H]1[C@H](OC(C)=O)[C@@]2(CO)C(CC1(C)C)C1=CCC3[C@@]4(C)CC[C@H](O[C@@H]5O[C@H](C(=O)O)[C@@H](O[C@@H]6O[C@H](CO)[C@@H](O)[C@H](O)[C@H]6O)[C@H](O)[C@H]5O[C@@H]5O[C@H](CO)[C@@H](O)[C@H](O)[C@H]5O)[C@](C)(CO)C4CC[C@@]3(C)[C@]1(C)C[C@H]2O (stereo partly specified)	> 4 mM (inactive)
O=C(O)c1c[nH]c2ccccc12	> 4 mM (inactive)
O=C(Nc1ccon1)c1cc2c(s1)CCCC2	> 4 mM (inactive)
COc1c2occc2cc2ccc(=O)oc12	> 4 mM (inactive)
COc1ccc2cc1Oc1ccc(cc1)C[C@H]1c3c(cc4c(c3Oc3cc5c(cc3OC)CCN(C)[C@@H]5C2)OCO4)CCN1C	> 4 mM (inactive)
O=c1[nH]cc(N=Cc2ccc(F)cc2)c(=O)[nH]1	> 4 mM (inactive)
OCc1ccccc1O[C@@H]1O[C@H](CO)[C@@H](O)[C@H](O)[C@H]1O	> 4 mM (inactive)
COc1cc2c(cc1O)CC1c3c(cc(O)c(OC)c3-2)CCN1C (stereo unspecified)	> 4 mM (inactive)
O=C(Nc1ccc(F)cc1F)c1ccco1	> 4 mM (inactive)
Cc1cn(C(=O)CN2C(=O)c3ccccc3C2=O)c(C)n1	> 4 mM (inactive)
COc1ccc2c(c1)OC[C@@H](Cc1ccc(OC)c(OC)c1)[C@@H]2O	> 4 mM (inactive)
Cc1oc2nc3c(c(=O)[nH]c(=O)n3C)n2c1C	> 4 mM (inactive)
CCOC(=O)c1[nH]c(C)cc1C	> 4 mM (inactive)
COc1cc2occc2c2oc(=O)ccc12	> 4 mM (inactive)
CN(C)c1nc(N2CCOCC2)nc(N2CCOCC2)n1	> 4 mM (inactive)
CS(=O)(=O)N1CCN(C(=O)c2ccccc2F)CC1	> 4 mM (inactive)
CC(=O)c1cccc(NC(=O)NN2CCOCC2)c1	> 4 mM (inactive)
S=C(Cc1cccnc1)N1CCOCC1	> 4 mM (inactive)
CCCn1cnn2c(=O)cc(C)nc12	> 4 mM (inactive)
NC(=O)Cn1nc2c3c(cccc3c1=O)-c1ccccc1-2	> 4 mM (inactive)

Compound	Kd
Cc1cc(C(F)(F)F)n2nc(C(=O)O)c(Cl)c2n1	> 4 mM (inactive)
CC12CNCC(C)(CNC1)C2O (stereo unspecified)	> 4 mM (inactive)
c1ccc(Cc2nn3c(-c4ccncc4)nnc3s2)cc1	> 4 mM (inactive)
Cc1ccc(C)n1CCN1CCNCC1	> 4 mM (inactive)
O=C(c1ccc(F)cc1)C1CCNCC1	> 4 mM (inactive)
CNC(=O)COc1cccc2c1CCNC2=O	> 4 mM (inactive)
CC(=O)OCC[C@H](C)CCC=C(C)C	> 4 mM (inactive)
Cc1cc(C)c(NC(=O)CN2CCC(O)CC2)c(C)c1	> 4 mM (inactive)
CC1(C)N=C2C(=[N+]1[O-])CCC/C2=N\O	> 4 mM (inactive)
O=C(CSc1ncnc2ccccc12)NCCCO	> 4 mM (inactive)
Cc1ccc2nc(SCC(=O)O)nc(C)c2c1	> 4 mM (inactive)
CC(=O)Nc1ccc(S(=O)(=O)NC2=NCCS2)cc1	> 4 mM (inactive)
COc1ccc(-c2coc3c(O)c(OC)ccc3c2=O)cc1	> 4 mM (inactive)
Nc1cccc(C(=O)c2ccccc2)c1	> 4 mM (inactive)
Cc1ccc(SCc2cc(=O)n3[nH]c(C)nc3n2)cc1	> 4 mM (inactive)
Oc1ccccc1C(=S)N1CCCCCC1	> 4 mM (inactive)
N#CCc1nc2ccccc2s1	> 4 mM (inactive)
C=CCc1ccc(OC(=O)c2ccccc2)c(OC)c1	> 4 mM (inactive)
C=C1CCC2C(CC2(C)C)C(=O)CCC1O (stereo unspecified)	> 4 mM (inactive)
NC(=O)Cn1nc(-c2ccc(F)cc2)ccc1=O	> 4 mM (inactive)
Cc1occc1C(=O)Nc1ccc2c(c1)CCC2	> 4 mM (inactive)
N#Cc1ccccc1CSc1ccccn1	> 4 mM (inactive)
Cc1ccc(NC(=O)CN2C(=O)CSC2=O)cc1	> 4 mM (inactive)
COc1cc(OC)cc(-c2nc(N)n[nH]2)c1	> 4 mM (inactive)

Compound	Kd
O=C(O)CCS(=O)(=O)c1ccccc1	> 4 mM (inactive)
CC(=O)Nc1ccc(NC(=O)/C=C\C(=O)O)cc1	> 4 mM (inactive)
Nc1oncc1-c1ccccn1	> 4 mM (inactive)
NC1=NN(c2ccccc2)C(=O)C1	> 4 mM (inactive)
COc1ccc([C@@H]2CC(=O)c3c(O)cc(O)cc3O2)cc1O	> 4 mM (inactive)
COc1ccc(-c2cc(=O)c3c(O)cc(O[C@@H]4O[C@H](CO[C@H]5O[C@H](C)[C@@H](O)[C@H](O)[C@@H]5O)[C@@H](O)[C@H](O)[C@H]4O)cc3o2)cc1O	> 4 mM (inactive)
O=C(Nc1nc2c(s1)CCCC2)c1cccnc1	> 4 mM (inactive)
CC(NC(=O)C1CCCCC1)C(=O)NC1=NCCS1 (stereo unspecified)	> 4 mM (inactive)
NC(=O)CC1Nc2cccc3cccc(c23)NC1=O (stereo unspecified)	> 4 mM (inactive)
O=c1c2ccccc2[nH]c2ncccc12	> 4 mM (inactive)
NC(=O)C1CCN(C(=S)c2cccs2)CC1	> 4 mM (inactive)
CCOC(=O)c1cc(C)n(-n2cnnc2)c1C	> 4 mM (inactive)
Cc1nccc2c1[nH]c1ccccc12	> 4 mM (inactive)
CCOc1ccc(Cl)cc1S(=O)(=O)N1CCCC1	> 4 mM (inactive)
CN1CCC(N(C)Cc2cccnc2)CC1	> 4 mM (inactive)
CC1(C)NC(=O)N(CCOc2ccc3c(c2)CCC3)C1=O	> 4 mM (inactive)
O=C(O)c1ccc2occc2c1	> 4 mM (inactive)
Nc1ncnc2c1ncn2CCN1CCOCC1	> 4 mM (inactive)
Cc1ccc(-c2nn(C)c(=O)c3ccccc23)cc1CO	> 4 mM (inactive)
O=c1c(O)c(-c2ccccc2)oc2ccc3occc3c12	> 4 mM (inactive)
